Four compounds from ChEMBL document CHEMBL3044995, “Synthesis of allylic trifluoromethyl ketones and their activity as inhibitors of the sex pheromone of the leopard moth, Zeuzera pyrina L. (Lepidoptera: Cossidae)” (Pest Manag Sci, 2011) can be followed below.

A short description of series [1]: Toxicity in Swiss Mus musculus (mouse) measured after 6 days. Type of series: organism-based. Particulars: in vivo.
In series [2] the test system is Zeuzera pyrina. Kind of series: Inhibition of electroantennogram response of Zeuzera pyrina males to sex pheromone at 1 ug/antenna topical application by electrophysiology. Type of series: functional.
Series [3] deals with Zeuzera pyrina. Kind of series: Inhibition of electroantennogram response of Zeuzera pyrina males to sex pheromone at =>0.05 ug/antenna topical application by electrophysiology. Type of series: functional, organism-based.
Series [4] relates to Zeuzera pyrina. Description: Inhibition of electroantennogram response of Zeuzera pyrina males to sex pheromone at 0.1 ug/antenna topical application by electrophysiology. Type of series: functional, organism-based.
Series [5] relates to Zeuzera pyrina. Description: Inhibition of electroantennogram response of Zeuzera pyrina males to sex pheromone at 0.5 ug/antenna topical application by electrophysiology. Type of series: functional, organism-based.
Series [6] has as its system Daphnia. Kind of series: Toxicity in Daphnia assessed as survial. Type of series: organism-based.
The subject of series [7] is Zeuzera pyrina. Description: Effect on response of Zeuzera pyrina males to the calling female assessed as contact to female up to 10 ug by Wind tunnel assay. Type of series: functional.
The test system of series [8] is Zeuzera pyrina. Kind of series: Effect on response of Zeuzera pyrina males to the calling female assessed as complete upwind fligts up to 10 ug by Wind tunnel assay. Type of series: functional.
Series [9] concerns Zeuzera pyrina. Description: Effect on response of Zeuzera pyrina males to the calling female assessed as male took off up to 10 ug by Wind tunnel assay. Type of series: functional.
In series [10] the test system is Zeuzera pyrina. Description: Effect on response of Zeuzera pyrina males to the calling female assessed as flight towords source up to 10 ug by Wind tunnel assay. Type of series: functional.

Values after ≈ are worked out from the molar mass of the structure shown. Active and inactive are the calls of the source. The calls are words filed in the database; no cut-off is given here.

`CCCCCCCCSCC(=O)C(F)(F)F`: the LD50 (in general, the dose at which mortality reaches 50%) at 144 h in [1] was determined as 1000 mg/kg.

Take `CCCC/C=C\CCCCCCCCC/C=C/CC(=O)C(F)(F)F`: in series [2], the “inhibition (INH)” value was above 80%. Moreover, the inhibition result in series [3] and in series [5] was “Active” in each case. For the same compound, the outcome in [4] was Active.

In [1], `CCCC/C=C\CCCCCCCCCCC(=O)C(F)(F)F` had an LD50 at 144 h of 1000 mg/kg. Moreover, the EC50 (in general, the concentration at which the effect is half-maximal) in [6] was 0.07 µg/mL (≈ 0.218 µM).

Regarding `CCCC/C=C\CCCCCCCC/C=C/CCC(=O)C(F)(F)F`, the “inhibition (INH)” value in series [2] is above 80%. Further, the Activity is given as 55% in series [7], 55% in series [8], 95% in [9] and 62% in series [10]. In addition, the result in [4] was Active.
